Source: US10577610B2, “EpCAM aptamers and conjugates thereof” (Deakin University, priority 2015, dated 2020)
[invdT] = inverted (3'-3') thymidine; {TYE665} = TYE665 fluorescent dye

Assays:
[1] = biological target: T1, native EpCAM protein expressed on the cell surface (HEY cells) (Homo sapiens, UniProt P16422); test: Flow cytometry binding assay on HEY cells (EpCAM-positive); details: for Kd: HEY (EpCAM-positive) cells, flow cytometry, n=3
T1 construct: host or cells: HEY ovarian cancer cells
T1 sequence (P16422 24-314): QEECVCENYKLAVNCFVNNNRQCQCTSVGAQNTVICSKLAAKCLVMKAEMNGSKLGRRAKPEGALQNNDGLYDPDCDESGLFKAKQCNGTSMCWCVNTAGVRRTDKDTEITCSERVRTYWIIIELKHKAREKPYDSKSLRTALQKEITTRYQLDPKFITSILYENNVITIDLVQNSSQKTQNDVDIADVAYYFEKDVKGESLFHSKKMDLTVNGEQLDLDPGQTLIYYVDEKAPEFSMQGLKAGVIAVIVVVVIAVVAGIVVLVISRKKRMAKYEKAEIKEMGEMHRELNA
Description: In order to determine the binding affinity (equilibrium dissociation constant KD) of the aptamers. Binding assays were conducted to measure the binding to native EpCAM protein expressed on the cell surface. The aptamers were incubated with the cells at concentrations ranging from 0 nM to 400 nM. These were subsequently analysed by flow cytometry. Aptamers were thawed from storage (−20° C.) prior to use. These were then diluted via serial dilutions with phosphate buffered saline (PBS) in order to achieve the desired concentrations. PBS was supplemented with a MgCl2 concentration appropriate for the aptamer (1 mM for anti-TfR aptamers; 5 mM for conjugate aptamers). Aptamers were then folded into their 3D structures using a thermocycler (85° C. for 5 minutes, slow cooling to 22° C. over 10 minutes and 37° C. for 15 minutes).
Concurrently, subcultured cells were incubated in blocking buffer (PBS with 10% FCS, 1 mg/mL BSA, 0.1 mg/mL tRNA) for 30 minutes. Following centrifugation, blocking buffer was removed and cells were resuspended in binding buffer (PBS with 10% FCS, 1 mg/mL BSA, 0.1 mg/mL tRNA). Cells (50 μL) were then incubated with the aptamers (50 μL) for 30 minutes at 37° C. at a range of concentrations (0 nM, 20 nM, 40 nM, 60 nM, 80 nM, 100 nM, 200 nM, 400 nM). Following this, cells were washed in 100 μL PBS three times before final resuspension for flow cytometry.
Aptamers were incubated with the chosen cell lines (bEnd.3 cells, mouse cells positive for TfR; HEY cells, human ovarian cancer cell line positive for EpCAM; and MOLT4 human cells negative for both TfR and EpCAM) at a range of concentrations. Aptamer-bound cells were analysed using a FACS Canto II flow cytometer (Becton Dickinson), counting 10,000 events for each sample, in order to determine the binding affinity of the aptamers. […] The value for the auto fluorescent 0 nM concentration was subtracted from the other figures to account for background fluorescence (Li N et al (2009) Journal of Proteome Research 8(5):2438-48). The resultant values were then used to determine the dissociation constant (KD) via the Graph Pad Prism 3 software. […]
The binding affinities of aptamers Bi1, Bi2 and Bi3 were determined semi-quantitatively via flow cytometry, using bEnd.3 cells to assess reactivity with TfR, HEY cells to determine EpCAM specificity and the MOLT4 cell line as a negative control. Three independent binding assays were performed for these aptamer against all three cell lines (bEnd.3, HEY and MOLT4). […]

bEnd.3 cells = test: Confocal microscopy internalisation into bEnd.3 cells; assay type: cell-based, mouse; details: for Internalisation into TfR-expressing bEnd.3 cells: conjugate aptamers, 400 nM, two hour, confocal microscopy
Description: Confocal microscopy was used as a means of visualising aptamer internalisation into the cells. Both aptamers and cells were prepared in the same manner as described above before they were mixed and allowed to incubate at 37° C. The aptamers were used at a concentration of 200 nM and were allowed to incubate for 60 minutes. The concentration for the conjugate (bifunctional) aptamers was 400 nM and these were incubated with the cells for 120 minutes. Ten minutes prior to end of incubation, 2 μL of Hoechst nuclear stain (10 mg/mL) was added to cells. Cells were then washed three times with 100 μL of PBS as described above and resuspended in 20 μL (8×10^5 cells/well) in an 8-chambered slide (Lab-Tek II, Nunc) for visualisation. Cells were incubated in blocking buffer for 60 mins followed by resuspension in binding buffer containing the aptamer and incubated for 60 mins at 37° C. […] The aptamer solution was removed and the cells were washed three times for 5 min each in PBS prior to visualisation using a FluoView FV10i laser scanning confocal microscope (Olympus). In order to assess the mechanism of cellular uptake, the internalisation of a phycoethyrin-labelled rat anti-mouse TfR monoclonal antibody (R17217; Abcam) was also visualised by confocal microscopy by co-incubating it with the aptamer at 1 μg/mL for 30 minutes. The uptake of these aptamers into cells is an important factor in determining the potential for use as therapeutics. The anti-transferrin receptor aptamers generated herein are designed to pass through the BBB via the active transcytosis pathway. […] This was done by visualising the internalisation of aptamers at a concentration of 200 nM into bEnd.3 and MOLT4 cells over the course of a one hour incubation with confocal microscopy. Aptamers are relatively new molecular tools in the field of diagnostics and therapeutics. […] The performance of the aptamer with a corresponding antibody was compared by examining uptake in bEnd.3 cells. This was done by incubating the highest affinity aptamer, TfR3, and the anti-TfR antibody with the bEnd.3 cells and observing them via confocal microscopy. The anti-TfR aptamers generated herein are intended to be used as drug delivery agents capable of crossing the blood-brain barrier (BBB). In an in vivo or clinical setting, these would need to pass from the bloodstream and into the BBB endothelial monolayer before exiting on the other side into the brain parenchyma. Given this, it is vital that these are not only capable of entered cells via active transport processes, but can also exocytose out again. Therefore, a time course internalisation experiment was conducted in order to establish whether or not the aptamers are being retained in the cells or are returning to the extracellular fluid. […]

| Substance | Binding to HEY cell line (specific or non-specific) ([1]; flow cytometry binding curve) | Co-localisation with the anti-TfR antibody (bEnd.3 cells; bEnd.3 cells, co-incubation with antibody R17217) | Kd [1] [nM] | Internalisation into TfR-expressing bEnd.3 cells (bEnd.3 cells) |
| --- | --- | --- | --- | --- |
| TfR3: version of TfR1 with scrambled binding loop sequence, SEQ ID NO:6 (DNA GCGTGGTACCACGC; DNA, 5' {TYE665}, 3' [invdT], backbone not given here) | clear non-specific binding | observed |  |  |
| 5′-GCGCGGGCCCGCGCTAACGGAGGTTGCGTCCGT-3′ (GCGCGGGCCCGCGCTAACGGAGGTTGCGTCCGN; DNA sequence of aptamer conjugate Bi2; (33)..(33) n is t or 3′ inverted deoxythymidine (dT)) |  |  | 205 ± 73.3 | internalised |
| Bi1: aptamer conjugate based on TfR1 and scrambled EpCAM binding loop, negative control, SEQ ID NO:8 (GCGCGTGCACGCGCTAACGGATTCCTTTTCCGN; listed as DNA, further chemistry not given here) |  |  | 921 ± 270 | not |
| 5′-GCGCGGTACCGCGCTAACGGAGGTTGCGTCCGT-3′ (GCGCGGTACCGCGCTAACGGAGGTTGCGTCCGN; listed as DNA, chemistry not given here) [Bi3] |  |  | 219 ± 49.2 | internalised |
